Measured values from US11116736B2, “2-amino-N'-benzylideneacetohydrazides and derivatives for the management of CFTR protein mediated diseases” (Emory University, priority 2015, dated 2021).
Read-outs that look alike come from different tables or passages of the source.

Experiments:
WT-hCFTR [1] = biological target: T1, WT-hCFTR (Homo sapiens, UniProt P13569); experiment: Two-electrode voltage clamp (TEVC) on wildtype hCFTR expressed in Xenopus oocytes; type: cell-based; conditions: for effect on hCFTR current (block / potentiation), in words / Kd: ~50 s extracellular exposure; for Kd: VM=−60 mV
T1 construct: expressed in transfected cells; host or cells: Xenopus laevis oocytes injected with cRNA (pGEMHE construct from Dr. D. Gadsby)
T1 sequence (P13569 whole entry): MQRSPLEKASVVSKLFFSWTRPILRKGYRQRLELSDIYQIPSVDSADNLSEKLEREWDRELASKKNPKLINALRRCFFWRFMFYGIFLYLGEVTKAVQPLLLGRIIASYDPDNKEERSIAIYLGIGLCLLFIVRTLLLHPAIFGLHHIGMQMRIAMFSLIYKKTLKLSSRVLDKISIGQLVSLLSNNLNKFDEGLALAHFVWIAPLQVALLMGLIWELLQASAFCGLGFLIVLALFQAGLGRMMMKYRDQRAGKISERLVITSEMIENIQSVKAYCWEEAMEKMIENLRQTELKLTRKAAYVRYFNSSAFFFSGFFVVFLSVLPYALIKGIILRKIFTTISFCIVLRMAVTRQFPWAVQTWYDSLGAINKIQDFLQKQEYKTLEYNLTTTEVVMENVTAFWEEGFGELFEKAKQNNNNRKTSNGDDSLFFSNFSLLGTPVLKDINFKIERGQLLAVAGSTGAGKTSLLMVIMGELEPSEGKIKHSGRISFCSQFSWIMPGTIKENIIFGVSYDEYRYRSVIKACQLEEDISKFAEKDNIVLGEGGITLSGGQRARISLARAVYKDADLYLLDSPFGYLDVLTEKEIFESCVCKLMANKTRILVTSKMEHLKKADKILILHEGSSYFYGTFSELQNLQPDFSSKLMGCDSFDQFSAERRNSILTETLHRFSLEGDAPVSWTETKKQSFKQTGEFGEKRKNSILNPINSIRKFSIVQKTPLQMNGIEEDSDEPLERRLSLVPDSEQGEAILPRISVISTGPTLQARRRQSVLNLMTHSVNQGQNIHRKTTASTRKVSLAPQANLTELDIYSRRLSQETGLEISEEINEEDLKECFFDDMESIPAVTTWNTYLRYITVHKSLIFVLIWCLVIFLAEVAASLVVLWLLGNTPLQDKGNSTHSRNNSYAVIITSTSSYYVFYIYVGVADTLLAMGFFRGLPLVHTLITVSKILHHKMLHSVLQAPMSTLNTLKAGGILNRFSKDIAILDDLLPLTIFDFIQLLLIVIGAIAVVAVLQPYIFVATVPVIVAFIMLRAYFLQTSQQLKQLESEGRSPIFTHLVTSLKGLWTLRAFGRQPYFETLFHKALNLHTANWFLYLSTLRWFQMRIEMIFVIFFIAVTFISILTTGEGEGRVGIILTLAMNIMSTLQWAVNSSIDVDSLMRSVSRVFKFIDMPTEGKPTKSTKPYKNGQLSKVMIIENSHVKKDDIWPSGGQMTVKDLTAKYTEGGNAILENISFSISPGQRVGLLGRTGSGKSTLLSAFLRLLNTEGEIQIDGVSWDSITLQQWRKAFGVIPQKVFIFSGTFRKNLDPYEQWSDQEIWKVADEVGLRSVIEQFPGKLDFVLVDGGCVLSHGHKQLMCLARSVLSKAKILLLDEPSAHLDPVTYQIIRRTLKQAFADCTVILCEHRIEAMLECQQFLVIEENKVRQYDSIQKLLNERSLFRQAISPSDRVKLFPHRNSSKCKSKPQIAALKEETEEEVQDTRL
Experimental: The effects of OSSK-2 and OSSK-3 on hCFTR were tested by expression in Xenopus oocytes. Representative current traces using the two-electrode voltage clamp technique (TEVC) are shown in FIGS. 2A and 2B for OSSK-3 and FIG. 2C for OSSK-2.
(§1) Human CFTR cRNAs used in electrophysiology experiments were prepared from constructs encoding WT-hCFTR in the pGEMHE vector (hCFTR/pGEMHE kindly provided by Dr. D. Gadsby, Rockefeller University). The mutants of hCFTR used in this study were prepared using site-directed mutagenesis with the Quikchange protocol (Stratagene, La Jolla, Calif.) and mutant constructs were verified by sequencing across the entire open reading frame before use. Xenopus laevis oocytes were injected with 0.4-10 ng of CFTR cRNAs, and were incubated at 17° C. in modified Liebovitz's L-15 media with the addition of HEPES (pH 7.5), penicillin, and streptomycin. Recordings were made typically 24-96 hours after the injection of cRNAs.
(§2) Standard two-electrode voltage clamp (TEVC) techniques were used to study the effects of chemicals with application of reagents to the extracellular bath. Each oocyte was injected with CFTR cRNA along with cRNA encoding the beta2-adrenergic receptor (β2AR). Electrode resistances measured 0.5-1.4 MΩ when filled with 3 M KCl and measured in standard ND96 bath solution that contained (in mM): 96 NaCl, 2 KCl, 1 MgCl2, and 5 HEPES (pH 7.5). CFTR channels were activated by exposure to 10 μM isoproterenol (ISO) in ND 96 and alternatively assayed in the presence or absence of different concentrations of compounds in the bath solution, typically in the continuing presence of ISO. Currents were acquired with an Axoclamp 900A amplifier and Clampex 10.2 software, and current data were digitized at 2 kHz.

F508del-hCFTR = biological target: T2, F508del-hCFTR (Homo sapiens, UniProt P13569, DEL508-508); experiment: Two-electrode voltage clamp (TEVC) on F508del-hCFTR expressed in Xenopus oocytes; type: cell-based; conditions: for potentiation of F508del-hCFTR, summary in words: FIGS. 4A and 4B under modified conditions
T2 construct: expressed in transfected cells; host or cells: Xenopus laevis oocytes injected with cRNA; The mutant was made by Quikchange mutagenesis of hCFTR/pGEMHE
T2 sequence (P13569 with tags, fused parts or gaps DEL508-508): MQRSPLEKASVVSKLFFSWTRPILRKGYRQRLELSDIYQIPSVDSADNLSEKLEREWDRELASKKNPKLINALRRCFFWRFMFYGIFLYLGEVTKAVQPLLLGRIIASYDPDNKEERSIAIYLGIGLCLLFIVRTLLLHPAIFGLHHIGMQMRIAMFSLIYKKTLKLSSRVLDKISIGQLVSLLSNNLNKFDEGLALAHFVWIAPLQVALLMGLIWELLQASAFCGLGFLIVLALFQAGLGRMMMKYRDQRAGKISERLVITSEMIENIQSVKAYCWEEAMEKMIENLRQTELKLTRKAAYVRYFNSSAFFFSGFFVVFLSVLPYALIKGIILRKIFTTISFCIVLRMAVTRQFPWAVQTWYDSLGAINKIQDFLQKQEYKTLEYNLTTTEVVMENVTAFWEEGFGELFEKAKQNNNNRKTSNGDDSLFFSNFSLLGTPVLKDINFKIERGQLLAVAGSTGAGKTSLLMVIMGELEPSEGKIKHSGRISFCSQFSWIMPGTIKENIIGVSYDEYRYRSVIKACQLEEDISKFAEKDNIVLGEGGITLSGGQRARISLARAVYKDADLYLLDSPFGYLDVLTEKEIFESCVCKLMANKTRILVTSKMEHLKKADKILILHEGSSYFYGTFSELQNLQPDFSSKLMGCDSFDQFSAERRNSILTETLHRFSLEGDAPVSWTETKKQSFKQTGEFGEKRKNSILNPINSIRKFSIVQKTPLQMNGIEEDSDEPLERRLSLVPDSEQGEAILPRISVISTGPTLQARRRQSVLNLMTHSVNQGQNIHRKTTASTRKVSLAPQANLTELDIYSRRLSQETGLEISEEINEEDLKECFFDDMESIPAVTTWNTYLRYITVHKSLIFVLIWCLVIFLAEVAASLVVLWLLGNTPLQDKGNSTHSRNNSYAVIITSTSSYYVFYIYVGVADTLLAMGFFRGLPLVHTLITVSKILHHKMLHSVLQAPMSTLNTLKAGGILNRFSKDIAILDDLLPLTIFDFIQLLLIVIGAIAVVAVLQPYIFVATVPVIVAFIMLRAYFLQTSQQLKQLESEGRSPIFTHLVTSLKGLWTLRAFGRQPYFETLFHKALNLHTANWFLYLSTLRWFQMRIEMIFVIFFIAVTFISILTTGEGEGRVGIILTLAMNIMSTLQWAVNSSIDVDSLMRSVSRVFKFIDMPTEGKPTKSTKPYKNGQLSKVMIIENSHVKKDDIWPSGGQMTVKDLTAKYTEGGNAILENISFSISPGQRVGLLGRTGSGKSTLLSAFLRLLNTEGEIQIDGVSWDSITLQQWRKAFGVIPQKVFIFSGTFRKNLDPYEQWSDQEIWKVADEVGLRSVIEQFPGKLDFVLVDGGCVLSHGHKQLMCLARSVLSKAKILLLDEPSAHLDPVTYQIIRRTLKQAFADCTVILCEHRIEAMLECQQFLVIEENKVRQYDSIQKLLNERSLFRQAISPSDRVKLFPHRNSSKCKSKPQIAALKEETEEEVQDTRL
Experimental: Nearly 90% of CF patients in the United States bear at least one F508del-CFTR allele; OSSK-3, and OSSK-2 were studied on F508del-hCFTR using the TEVC technique at VM=−60 mV.
as §1, §2

multiple CFTR mutations = conditions: cited from earlier work
WT-hCFTR [2] = biological target: T1, WT-hCFTR; conditions: cited from earlier work

Row | potentiation of WT-hCFTR, summary in words (WT-hCFTR [1]) | potentiation of F508del-hCFTR, summary in words (F508del-hCFTR) | Kd (WT-hCFTR [1]; read-out: apparent Kd for block of hCFTR) [µM] | Kd (WT-hCFTR [1]; read-out: apparent Kd for potentiation of hCFTR) [µM] | SMILES | effect on hCFTR current (block / potentiation), in words (WT-hCFTR [1]) | effect on F508del-hCFTR current (block / potentiation), in words (F508del-hCFTR; VM=−60 mV, 5 μM, ~50 s extracellular exposure) | potentiation of mutant CFTR, in words (multiple CFTR mutations) | potentiation of WT-hCFTR, in words (WT-hCFTR [2])
1 | mildly potentiate WT-hCFTR | very strongly potentiate F508del-hCFTR |  |  | Cc1cccc(NCC(=O)N/N=C/c2cc(Br)c(O)c(Br)c2O)c1 [OSSK-2, (E)-N′-(3,5-dibromo-2,4-dihydroxybenzylidene)-2-(m-tolylamino)acetohydrazide] | very weak block on hCFTR without obvious potentiation |  |  | 
2 | mildly potentiate WT-hCFTR | very strongly potentiate F508del-hCFTR | 33 | 0.0317 | Cc1ccc(NCC(=O)N/N=C/c2cc(Br)c(O)c(Br)c2O)cc1 [OSSK-3, (E)-N′-(3,5-dibromo-2,4-dihydroxybenzylidene)-2-(p-tolylamino)acetohydrazide] | both block as well as potentiation of hCFTR | very weak initial block that was followed by significantly stronger potentiation compared to the potentiation of WT-hCFTR |  | 
3 |  |  |  |  | CC(C)(C)c1cc(C(C)(C)C)c(NC(=O)c2c[nH]c3ccccc3c2=O)cc1O [VX-770, ivacaftor] |  |  | strongly potentiates multiple CFTR mutations | only mildly potentiates WT-hCFTR
